These results are taken from US7384558B2, “Compositions capable of inhibiting reactive oxygen and carbonyl species” (Baxter International Inc., priority 2004, dated 2008).

Several values for one entry are separate records, joined by “and”; a condition that tells them apart may be missing. Identical values can stand only once.

The nature of this experiment: TEAC (Trolox equivalent antioxidant activity) ABTS decolorization assay. The note with it: for antioxidant activity as compared to the Vitamin E standard compound (Trolox): Table 1, statement in words; for TEAC (Ratio % Inhibition): ratio of % inhibition of antioxidant compound / % inhibition of Trolox; for TEAC (Slope): relative to Trolox as standard, slope of % inhibition vs concentration. The protocol:
Tests were conducted to evaluate the antioxidant and carbonyl trapping properties of therapeutic compositions according to various embodiments of the present invention. A Trolox equivalent antioxidant activity (TEAC) test was conducted to assess the antioxidant properties as described below in greater detail.
The TEAC antioxidant activity was measured by the ABTS [2,2′-Azinobis-(3-ethylbenzothiazoline-6-sulphonic acid)] decolorization assay. In this method, a stable radical (ABTS radical cation) is formed, and the adsorption maxima is determined. See, for example, R. Ree, N. Pellegrini, A. Proteggente, A. Pannala, M. Yang and C. Rice-Evans, Antioxidant activity applying an improved ABTS radical cation decolorization assay, Free Rad. Biol. & Med., 26 (9/10), 1231-1237 (1999). The addition of antioxidant to the pre-formed radical cation reduces it to an extent and on a time-scale depending on the antioxidant activity, the concentration of the antioxidant and the duration of the reaction. Thus, the extent of reduction (decolorization) as percentage inhibition of the ABTS radical cation is determined as a function of concentration and time and calculated relative to the reactivity of Trolox as a standard under the same conditions. The TEAC value is calculated by the ratio of % of Inhibition of antioxidant compound/% Inhibition of Trolox.

As to “N-[2-(6-Hydroxy-tetramethylchroman-2-yl)ethyl]-N′-(penicillamyl)-piperazine [VE-PEN-1]”, the “antioxidant activity as compared to the Vitamin E standard compound (Trolox)” value is on record as “enhanced antioxidant activity”, the “TEAC (Ratio % Inhibition)” value is given as 1.6-2.1 and the “TEAC (Slope)” value is given as 1.3(r2 = 0.9996).

`Cc1c(C)c2c(c(C)c1O)CCC(C)(CCN1CCN(C(=O)[C@@H](N)CS)CC1)O2` (some centres unmarked) [VE-CYS-1, N-[2-(6-Hydroxy-tetramethylchroman-2-yl)ethyl]-N′-(cysteinyl)-piperazine]: the “antioxidant activity as compared to the Vitamin E standard compound (Trolox)” value is on record as “enhanced antioxidant activity”, the “TEAC (Ratio % Inhibition)” value was 1.4-1.5 and the “TEAC (Slope)” value was 1.4(r2 = 0.9997).

As for `Cc1c(C)c2c(c(C)c1O)CCC(C)(CCON)O2` (centres unmarked) [VE-ONH2-1, 2-(6-Hydroxy-2,5,7,8-tetramethylchroman-2-yl)-1-(aminooxy)ethane], the “TEAC (Ratio % Inhibition)” value is 0.9-1.0 and 0.5-0.8; the “TEAC (Slope)” value is 0.9(r2 = 0.9948) and 0.8(r2 = 0.9997).
